Source: article PMC11551917 (RSC Advances, 2024)

Target: Jack-bean urease (Canavalia ensiformis, UniProt P07374)
Experiment: indophenol ammonia assay, […] nm
Assay type: biochemical

Sequence of Jack-bean urease (P07374 whole entry, looked up): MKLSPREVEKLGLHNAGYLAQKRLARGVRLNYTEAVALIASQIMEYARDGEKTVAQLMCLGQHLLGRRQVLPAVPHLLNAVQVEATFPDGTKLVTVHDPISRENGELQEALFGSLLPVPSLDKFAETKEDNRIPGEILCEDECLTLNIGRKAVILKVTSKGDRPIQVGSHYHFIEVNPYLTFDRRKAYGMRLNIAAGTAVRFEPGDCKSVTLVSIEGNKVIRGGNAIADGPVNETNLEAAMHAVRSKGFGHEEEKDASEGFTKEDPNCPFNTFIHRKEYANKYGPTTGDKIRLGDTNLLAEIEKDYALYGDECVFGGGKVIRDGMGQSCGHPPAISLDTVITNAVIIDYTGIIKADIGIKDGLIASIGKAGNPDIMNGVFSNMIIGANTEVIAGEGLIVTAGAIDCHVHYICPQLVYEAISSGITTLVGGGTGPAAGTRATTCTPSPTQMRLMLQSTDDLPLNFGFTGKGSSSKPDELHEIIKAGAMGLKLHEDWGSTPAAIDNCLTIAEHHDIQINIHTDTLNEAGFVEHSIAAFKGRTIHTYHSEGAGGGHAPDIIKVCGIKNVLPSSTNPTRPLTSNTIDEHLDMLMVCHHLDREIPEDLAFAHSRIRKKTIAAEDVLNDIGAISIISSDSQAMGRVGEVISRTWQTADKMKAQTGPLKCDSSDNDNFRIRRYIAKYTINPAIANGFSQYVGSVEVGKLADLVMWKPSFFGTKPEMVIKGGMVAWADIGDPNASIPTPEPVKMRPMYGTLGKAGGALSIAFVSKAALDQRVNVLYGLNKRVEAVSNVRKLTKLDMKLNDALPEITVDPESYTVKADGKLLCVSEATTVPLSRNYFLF

Row | Structure (SMILES) | IC50
1 | Nc1cccc(C(=O)O)c1 [3-ABA] | 31.4 ± 0.48 µM
2 | NC(N)=S [Thiourea] | 24.5 ± 0.47 µM
